According to patent US20230416228A1 (Forkhead Biotherapeutics, Inc., priority 2020, published 2023):
Where a name gives a salt, the structure may show the parent alone.

Target: T1, human FOXO1 (constitutively active form Thr24Ala, Ser256Ala, Ser319Ala) (Homo sapiens, UniProt Q12778, S256A/S319A/T24A)
T1 construct: expressed in transfected cells; host or cells: HEK293 cells transfected with pcDNA3.1 plasmid
Test: FOXO1 inhibitor activity assay: cell-based transcriptional (luciferase) reporter assay in HEK293 cells
Conditions: HEK293 cells transfected with insulin response element firefly luciferase reporter, FOXO1 and Renilla luciferase; 10-point dose response 50 μM to 2.5 nM; 24 hours
Outline: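 IC50 and maximal inhibition were fitted by 4-parameter logistic regression on normalized firefly/Renilla luciferase ratios. The 0% reference used RFP in place of FOXO1, and the 100% reference was DMSO-only with all plasmids.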

T1 sequence (Q12778 whole entry T24A/S256A/S319A): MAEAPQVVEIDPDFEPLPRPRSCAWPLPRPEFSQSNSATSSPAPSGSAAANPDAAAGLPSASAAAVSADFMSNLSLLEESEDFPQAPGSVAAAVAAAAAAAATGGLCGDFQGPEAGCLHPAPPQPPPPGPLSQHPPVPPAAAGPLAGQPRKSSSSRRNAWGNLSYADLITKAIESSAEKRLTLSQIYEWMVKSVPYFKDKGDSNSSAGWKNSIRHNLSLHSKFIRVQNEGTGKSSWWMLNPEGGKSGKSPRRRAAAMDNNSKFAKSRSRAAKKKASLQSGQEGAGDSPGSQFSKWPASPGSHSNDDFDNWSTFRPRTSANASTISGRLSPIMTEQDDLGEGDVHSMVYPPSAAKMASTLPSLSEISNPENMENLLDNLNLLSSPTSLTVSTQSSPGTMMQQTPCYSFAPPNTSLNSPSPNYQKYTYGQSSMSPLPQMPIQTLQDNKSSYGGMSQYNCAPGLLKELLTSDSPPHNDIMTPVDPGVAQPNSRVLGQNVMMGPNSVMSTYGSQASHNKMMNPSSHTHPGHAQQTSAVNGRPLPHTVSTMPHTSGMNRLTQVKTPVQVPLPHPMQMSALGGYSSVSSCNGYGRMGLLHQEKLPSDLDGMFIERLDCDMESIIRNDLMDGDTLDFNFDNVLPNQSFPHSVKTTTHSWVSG

| IC50 [nM] | Compound |
| --- | --- |
| 100 to 300 | O=C(O)CN1CCN(c2ccc(C(=O)Nc3cc(-c4nc5ccccc5[nH]4)[nH]n3)cc2)CC1 [Compound A-199, 2-[4-[4-[[5-(1H-benzimidazol-2-yl)-1H-pyrazol-3-yl]carbamoyl]phenyl]-piperazin-1-yl]acetic acid hydrochloride] |
| 300 to 1000 | CN1CCN(c2ccc(C(=O)Nc3cc(-c4nc5ccccc5[nH]4)n(CCO)n3)cn2)CC1 [Compound A-200, N-[5-(1H-benzimidazol-2-yl)-1-(2-hydroxyethyl)pyrazol-3-yl]-6-(4-methyl-piperazin-1-yl)pyridine-3-carboxamide] |
| 300 to 1000 | CN1CCN(c2ccc(C(=O)Nc3cc(-c4nc5ccccc5[nH]4)n(CCO)n3)cc2)CC1 [Compound A-201, N-[5-(1H-benzimidazol-2-yl)-1-(2-hydroxyethyl)pyrazol-3-yl]-4-(4-methylpiperazin-1-yl)benzamide] |
| < 100 | Cn1nc(NC(=O)c2ccc(OCCO)c(Cl)c2)cc1-c1nc2ccccc2[nH]1 [Compound A-202, N-[5-(1H-benzimidazol-2-yl)-1-methyl-pyrazol-3-yl]-3-chloro-4-(2-hydroxyethoxy)benzamide] |
| 100 to 300 | Cn1nc(NC(=O)c2ccc(N3CCN(C4COC4)CC3)nc2)cc1-c1nc2ccccc2[nH]1 [Compound A-203, N-[5-(1H-benzimidazol-2-yl)-1-methyl-pyrazol-3-yl]-6-[4-(oxetan-3-yl)piperazin-1-yl]pyridine-3-carboxamide] |
| 100 to 300 | Cn1nc(NC(=O)c2ccc(N3CCN(CCO)CC3)nc2)cc1-c1nc2ccccc2[nH]1 [Compound A-204, N-[5-(1H-benzimidazol-2-yl)-1-methyl-pyrazol-3-yl]-6-[4-(2-hydroxy-ethyl)piperazin-1-yl]pyridine-3-carboxamide] |
| 300 to 1000 | Cn1nc(NC(=O)c2cnc(N3CCC(N4CCOCC4)CC3)cn2)cc1-c1nc2ccccc2[nH]1 [Compound A-205, N-[5-(1H-benzimidazol-2-yl)-1-methyl-pyrazol-3-yl]-5-(4-morpholino-1-piperidyl)pyrazine-2-carboxamide] |
| > 1000 | Cn1nc(NC(=O)c2cnc(N3CCC(N4CCOCC4)CC3)nc2)cc1-c1nc2ccccc2[nH]1 [Compound A-206, N-[5-(1H-benzimidazol-2-yl)-1-methyl-pyrazol-3-yl]-2-(4-morpholino-1-piperidyl)pyrimidine-5-carboxamide] |
| 300 to 1000 | Cn1nc(NC(=O)c2ccc(N3CCC(N4CCOCC4)CC3)nn2)cc1-c1nc2ccccc2[nH]1 [Compound A-207, N-[5-(1H-benzimidazol-2-yl)-1-methyl-pyrazol-3-yl]-6-(4-morpholino-1-piperidyl)pyridazine-3-carboxamide] |
| 100 to 300 | Cn1nc(NC(=O)c2ccc(N3CCC(N4CCOCC4)CC3)nc2)cc1-c1nc2ccccc2[nH]1 [Compound A-208, N-[5-(1H-benzimidazol-2-yl)-1-methyl-pyrazol-3-yl]-6-(4-morpholino-1-piperidyl)pyridine-3-carboxamide] |
| < 100 | CN1CCN(c2ccc(C(=O)Nc3cc(-c4nc5ccccc5[nH]4)n(C)n3)cn2)CC1 [Compound A-209, N-[5-(1H-benzimidazol-2-yl)-1-methyl-pyrazol-3-yl]-6-(4-methyl-piperazin-1-yl)pyridine-3-carboxamide] |
| < 100 | Cn1nc(NC(=O)c2ccc(N3CCOCC3)nc2)cc1-c1nc2ccccc2[nH]1 [Compound A-210, N-[5-(1H-benzimidazol-2-yl)-1-methyl-pyrazol-3-yl]-6-morpholino-pyridine-3-carboxamide] |
| 100 to 300 | COc1cc(F)c2[nH]c(-c3cc(NC(=O)c4ccc(N5CCN(CCO)CC5)nc4)nn3C)nc2c1 [Compound A-211, N-[5-(7-fluoro-5-methoxy-1H-benzimidazol-2-yl)-1-methyl-pyrazol-3-yl]-6-[4-(2-hydroxyethyl)piperazin-1-yl]pyridine-3-carboxamide] |
| < 100 | CN1CCN(c2ccc(C(=O)Nc3cc(-c4nc5ccccc5[nH]4)n(C)n3)cc2)CC1 [Compound A-212, N-[5-(1H-benzimidazol-2-yl)-1-methyl-pyrazol-3-yl]-4-(4-methyl-piperazin-1-yl)benzamide] |
| 100 to 300 | Cn1nc(NC(=O)c2ccc(N3CCN(CCO)CC3)cc2)cc1-c1nc2ccccc2[nH]1 [Compound A-213, N-[5-(1H-benzimidazol-2-yl)-1-methyl-pyrazol-3-yl]-4-[4-(2-hydroxy-ethyl)piperazin-1-yl]benzamide] |
| < 100 | COc1cc(F)c2[nH]c(-c3cc(NC(=O)c4ccc(N5CCN(C6COC6)CC5)nc4)nn3C)nc2c1 [Compound A-214, N-[5-(7-fluoro-5-methoxy-1H-benzimidazol-2-yl)-1-methyl-pyrazol-3-yl]-6-[4-(oxetan-3-yl)piperazin-1-yl]pyridine-3-carboxamide] |
| 100 to 300 | Cn1nc(NC(=O)c2ccc(N3CCN(C4COC4)CC3)cc2)cc1-c1nc2ccccc2[nH]1 [Compound A-215, N-[5-(1H-benzimidazol-2-yl)-1-methyl-pyrazol-3-yl]-4-[4-(oxetan-3-yl)piperazin-1-yl]benzamide] |

| IC50 [nM] | Compound |
| --- | --- |
| 100 to 300 | Cn1nc(NC(=O)c2ccc(N3CCNCC3)nc2)cc1-c1nc2ccccc2[nH]1 [Compound A-216, N-[5-(1H-benzimidazol-2-yl)-1-methyl-pyrazol-3-yl]-6-piperazin-1-yl-pyridine-3-carboxamide] |
| 100 to 300 | Cn1nc(NC(=O)c2ccc(N3CCNCC3)cc2)cc1-c1nc2ccccc2[nH]1 [Compound A-217, N-[5-(1H-benzimidazol-2-yl)-1-methyl-pyrazol-3-yl]-4-piperazin-1-yl-benzamide] |
| 100 to 300 | O=C(Nc1cc(-c2nc3ccccc3[nH]2)[nH]n1)c1ccc(N2CCNCC2)nc1 [Compound A-218, N-[5-(1H-benzimidazol-2-yl)-1H-pyrazol-3-yl]-6-piperazin-1-yl-pyridine-3-carboxamide] |
| < 100 | COc1cc(F)c2[nH]c(-c3cc(NC(=O)c4ccc(N5CCN(C6COC6)CC5)cc4)nn3C)nc2c1 [Compound A-219, N-[5-(7-fluoro-5-methoxy-1H-benzimidazol-2-yl)-1-methyl-pyrazol-3-yl]-4-[4-(oxetan-3-yl)piperazin-1-yl]benzamide] |
| < 100 | O=C(Nc1cc(-c2nc3ccccc3[nH]2)[nH]n1)c1ccc(N2CCN(C3COC3)CC2)cc1 [Compound A-220, N-[5-(1H-benzimidazol-2-yl)-1H-pyrazol-3-yl]-4-[4-(oxetan-3-yl)piperazin-1-yl]benzamide] |
| 300 to 1000 | Cn1nc(NC(=O)c2ccc(N3CCNC(=O)C3)nc2)cc1-c1nc2ccccc2[nH]1 [Compound A-221, N-[5-(1H-benzimidazol-2-yl)-1-methyl-pyrazol-3-yl]-6-(3-oxopiperazin-1-yl)pyridine-3-carboxamide] |
| < 100 | COc1cc(F)c2[nH]c(-c3cc(NC(=O)c4ccc(N5CCN(CCO)CC5)cc4)nn3C)nc2c1 [Compound A-222, N-[5-(7-fluoro-5-methoxy-1H-benzimidazol-2-yl)-1-methyl-pyrazol-3-yl]-4-[4-(2-hydroxyethyl)piperazin-1-yl]benzamide] |
| < 100 | Cn1nc(NC(=O)c2ccc(OCCO)c(C(F)(F)F)c2)cc1-c1nc2ccccc2[nH]1 [Compound A-223, N-[5-(1H-benzimidazol-2-yl)-1-methyl-pyrazol-3-yl]-4-(2-hydroxyethoxy)-3-(trifluoromethyl)benzamide] |
| 100 to 300 | Cn1nc(NC(=O)c2ccc(N3CCOC(CO)C3)nc2)cc1-c1nc2ccccc2[nH]1 (stereo not shown) [Compound A-224, N-[5-(1H-benzimidazol-2-yl)-1-methyl-pyrazol-3-yl]-6-[2-(hydroxy-methyl)morpholin-4-yl]pyridine-3-carboxamide] |
| 300 to 1000 | Cn1nc(NC(=O)c2ccc(N3CC[C@@H](O)C3)nc2)cc1-c1nc2ccccc2[nH]1 [Compound A-225, N-[5-(1H-benzimidazol-2-yl)-1-methyl-pyrazol-3-yl]-6-[(3R)-3-hydroxy-pyrrolidin-1-yl]pyridine-3-carboxamide] |
| 100 to 300 | CC(=O)N1CCN(c2ccc(C(=O)Nc3cc(-c4nc5ccccc5[nH]4)n(C)n3)cn2)CC1 [Compound A-226, 6-(4-acetylpiperazin-1-yl)-N-[5-(1H-benzimidazol-2-yl)-1-methyl-pyrazol-3-yl]pyridine-3-carboxamide] |
| 100 to 300 | Cn1nc(NC(=O)c2ccc(N3CCN4C(=O)CCC4C3)nc2)cc1-c1nc2ccccc2[nH]1 (stereo not shown) [Compound A-228, N-[5-(1H-benzimidazol-2-yl)-1-methyl-pyrazol-3-yl]-6-(6-oxo-1,3,4,7,8,8a-hexahydropyrrolo[1,2-a]pyrazin-2-yl)pyridine-3-carboxamide] |
| 100 to 300 | C[C@@H]1COCCN1c1ccc(C(=O)Nc2cc(-c3nc4ccccc4[nH]3)n(C)n2)cn1 [Compound A-229, N-[5-(1H-benzimidazol-2-yl)-1-methyl-pyrazol-3-yl]-6-[(3R)-3-methylmorpholin-4-yl]pyridine-3-carboxamide] |
| 100 to 300 | C[C@H]1COCCN1c1ccc(C(=O)Nc2cc(-c3nc4ccccc4[nH]3)n(C)n2)cn1 [Compound A-230, N-[5-(1H-benzimidazol-2-yl)-1-methyl-pyrazol-3-yl] -6-[(3S)-3-methylmorpholin-4-yl]pyridine-3-carboxamide] |
| > 1000 | Cc1cc(N2CCOCC2)ncc1C(=O)Nc1cc(-c2nc3ccccc3[nH]2)n(C)n1 [Compound A-232, N-[5-(1H-benzimidazol-2-yl)-1-methyl-pyrazol-3-yl]-4-methyl-6-morpholino-pyridine-3-carboxamide] |
| 300 to 1000 | CC(=O)N1CCN(c2ccc(C(=O)Nc3cc(-c4nc5ccccc5[nH]4)[nH]n3)cn2)CC1 [Compound A-233] |
| 300 to 1000 | COc1ccc(C(=O)Nc2nc(-c3nc4ccccc4[nH]3)n(C)n2)cc1Cl [Compound A-234, N-[5-(1H-benzimidazol-2-yl)-1-methyl-1,2,4-triazol-3-yl]-3-chloro-4-methoxy-benzamide] |
